Assay results: paper PMC2637447 (Neuropharmacology, 2008)

What was measured:
GluK1 = GluK1 (Homo sapiens, UniProt P39086); assay: Ca2+ fluorescence assay, antagonism of L-glutamate; assay type: cell-based
GluK3 = GluK3 (Homo sapiens, UniProt Q13003); assay: whole-cell voltage clamp, % inhibition at […] of […] glutamate currents; assay type: cell-based; conditions: read-out: % inhibition at 30 μM
Sequence of GluK3 (Q13003 32-919): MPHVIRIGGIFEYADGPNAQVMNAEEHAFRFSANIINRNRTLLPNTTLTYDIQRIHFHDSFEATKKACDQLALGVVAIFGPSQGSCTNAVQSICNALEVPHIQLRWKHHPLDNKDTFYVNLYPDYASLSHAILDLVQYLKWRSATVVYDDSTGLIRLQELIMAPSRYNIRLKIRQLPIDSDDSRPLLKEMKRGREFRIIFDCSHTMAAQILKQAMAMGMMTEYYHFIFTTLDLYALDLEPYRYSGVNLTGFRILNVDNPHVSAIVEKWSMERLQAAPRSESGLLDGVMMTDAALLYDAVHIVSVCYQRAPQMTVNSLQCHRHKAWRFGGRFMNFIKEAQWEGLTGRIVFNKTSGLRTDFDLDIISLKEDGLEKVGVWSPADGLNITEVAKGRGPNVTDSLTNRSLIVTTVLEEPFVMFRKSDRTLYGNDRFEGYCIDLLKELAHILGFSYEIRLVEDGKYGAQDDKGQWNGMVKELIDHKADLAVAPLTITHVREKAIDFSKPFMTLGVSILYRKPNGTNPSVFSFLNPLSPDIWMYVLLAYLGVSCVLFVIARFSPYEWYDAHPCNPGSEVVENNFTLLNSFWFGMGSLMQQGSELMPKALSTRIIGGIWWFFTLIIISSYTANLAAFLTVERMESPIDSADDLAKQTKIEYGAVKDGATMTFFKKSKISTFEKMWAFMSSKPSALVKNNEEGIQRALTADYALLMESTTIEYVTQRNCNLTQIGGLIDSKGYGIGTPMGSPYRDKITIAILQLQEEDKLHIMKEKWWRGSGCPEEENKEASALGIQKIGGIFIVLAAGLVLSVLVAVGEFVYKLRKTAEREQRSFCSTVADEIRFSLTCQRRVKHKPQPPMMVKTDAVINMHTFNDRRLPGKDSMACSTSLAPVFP

Sequence of GluK1 (P39086 31-918): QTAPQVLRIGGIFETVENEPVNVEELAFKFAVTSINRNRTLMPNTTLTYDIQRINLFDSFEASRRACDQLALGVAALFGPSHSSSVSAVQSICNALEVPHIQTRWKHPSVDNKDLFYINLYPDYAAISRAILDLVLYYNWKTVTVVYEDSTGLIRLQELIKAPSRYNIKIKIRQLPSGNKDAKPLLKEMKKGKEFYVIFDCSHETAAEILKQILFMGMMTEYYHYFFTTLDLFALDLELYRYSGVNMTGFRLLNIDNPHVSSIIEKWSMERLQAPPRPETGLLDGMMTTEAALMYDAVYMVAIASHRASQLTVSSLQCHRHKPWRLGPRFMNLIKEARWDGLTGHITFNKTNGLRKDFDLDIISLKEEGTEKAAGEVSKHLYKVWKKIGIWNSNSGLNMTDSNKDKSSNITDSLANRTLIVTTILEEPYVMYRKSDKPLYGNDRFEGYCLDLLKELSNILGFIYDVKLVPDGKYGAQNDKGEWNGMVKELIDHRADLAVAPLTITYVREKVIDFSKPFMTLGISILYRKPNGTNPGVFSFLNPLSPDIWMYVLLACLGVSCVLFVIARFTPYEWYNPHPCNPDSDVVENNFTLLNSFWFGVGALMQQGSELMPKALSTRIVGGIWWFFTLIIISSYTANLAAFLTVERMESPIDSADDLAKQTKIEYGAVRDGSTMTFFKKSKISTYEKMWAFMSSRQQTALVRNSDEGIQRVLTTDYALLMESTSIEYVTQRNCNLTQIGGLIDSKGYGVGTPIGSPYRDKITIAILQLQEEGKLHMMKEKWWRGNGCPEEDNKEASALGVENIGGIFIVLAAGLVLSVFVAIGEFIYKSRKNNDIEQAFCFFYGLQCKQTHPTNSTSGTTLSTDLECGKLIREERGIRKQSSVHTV

Molecule | Kb (GluK1) | inhibition at 30 µM (GluK3)
UBP304 | 110 ± 30 nM | 
Cc1cn(C[C@H](N)C(=O)O)c(=O)n(Cc2cc(-c3ccccc3)sc2C(=O)O)c1=O [ACET, (S)-1-(2-amino-2-carboxyethyl)-3-(2-carboxy-5-phenylthiophene-3-yl-methyl)-5-methylpyrimidine-2,4-dione] | 1.4 ± 0.2 nM | 30 ± 5%
